Reference: patent US20140127120A1, “THERAPEUTIC AGENT FOR BONE FRACTURE COMPRISING CARBON DIOXIDE AS AN ACTIVE INGREDIENT” (NEOCHEMIR INC., priority 2011, published 2014)

Tests used:
Type in all cases: in vivo, rat
[1] = tested on: 5-Week-old SD rats; assay: Bone growth promoting effect in rats (transdermal carbon dioxide absorption via external administration device)
Description: (§1) Bone growth promoting effect in rats (using a carbon dioxide external administration device as a means for absorbing a therapeutic agent for bone fracture, a bone growth promoting agent, or a therapeutic or prophylactic agent for bone diseases containing carbon dioxide as an active ingredient)
5-Week-old SD rats were used as test animals. A carbon dioxide absorption aid consisting of 93.77% by weight of water, 5% by weight of glycerin, 0.65% by weight of carbomer, 0.15% by weight of sodium alginate, 0.15% by weight of sodium dihydrogen phosphate, 0.18% by weight of sodium hydroxide, 0.10% by weight of methylparaben was applied twice a week to a hair-shaved right lower limb of a rat of the carbon dioxide absorption group (n=6) in a thickness of 2 mm under anesthesia according to the patent document 7. The lower body of the rat was covered to seal with a bag having 4 cm width and 4 cm length and the top of the bag was bound tightly with a rubber band. Then, the bag was filled with 100% concentration of carbon dioxide through a vinyl tube from a carbon dioxide bomb in order to allow carbon dioxide to be absorbed for 10 minutes. The control group (n=3) was subjected to only the anesthetic procedure. The above mentioned procedures were continued for 3 months. After 3 months, the tibias of both legs were collected from all rats and the length of them was measured by X-ray. […]

[2] = tested on: 5-Week-old Wister rats; assay: Bone growth promoting effect in exercise-loaded rats
Method: as §1, with “effect in exercise-loaded rats (using” for “effect in rats (using”
5-Week-old Wister rats were matched based on their body weight and were divided into two groups (a control group: n=8; an exercise-loaded group: n=16). The running training for 30 minutes per day using an activity wheel was given to all rats for five continuous days. The exercise-loaded rats were matched based on the running distance on the fourth and fifth day as well as the body weight on the fifth day and were divided into two groups (a training group: n=8; a carbon dioxide absorption group: n=8). After shaving the lower body hair of all rats, the running training for 30 minutes per day using an activity wheel was given to the training group and the carbon dioxide absorption group. This training was done five times a week for 4 weeks. […] The tibias of both legs were collected from the rats, and then the entire length of the tibias was measured by X-ray. […] An auxotonic gristle plate of the tissue section was stained with Safranine O and its length was measured.

[3] = tested on: 12-week-old SD rats; assay: Bone fracture healing promoting effect in rats (simple femur fracture); details: carbon dioxide absorption 20 minutes, X-ray
Description: as §1, with “Bone fracture healing” for “Bone growth”
According to the literature (Kokubo, T et al., J Orthop Res. 2003 May; 21(3): 503-510), a simple fracture was made in a femur of 12-week-old SD rats (n=23). The rats were matched based on their body weight and were divided into two groups (a control group: n=11; a carbon dioxide absorption group: n=12). In the same procedures as Example 1 except for adopting 20 minutes of the carbon dioxide absorption time, carbon dioxide absorption into the fractured limb was conducted. After making a fracture, X-ray images of the femur were taken for 2 rats of each group at the first week, 3 rats of each group at the second week, and 6 rats of the control group and the carbon dioxide absorption group at the third week. After the completion of the test, all rats were euthanized and the femurs were collected from the rats.

O=C=O [carbon dioxide]
length of the right tibia (ratio of the length between the right tibia and the left tibia) versus control group ([1]; 100% carbon dioxide to right lower limb 10 minutes twice a week for 3 months, X-ray, P<0.05, FIG. 1): statistically significantly longer | number of proliferating cells (PCNA staining of tibia auxotonic gristle area) versus control group ([1]; after 3 months of carbon dioxide absorption, FIG. 2): larger | length of the auxotonic gristle plate versus training group and control group ([2]; 4 weeks, Safranine O staining, FIG. 4): statistically significantly longer | length of tibias versus training group ([2]; running training plus carbon dioxide absorption to both lower limbs 10 minutes, five times a week for 4 weeks, X-ray, P<0.1, FIG. 3): statistically significantly longer | fracture healing at the first and second week ([3]; first and second week): not healed | rats with fracture completely healed at the third week ([3]; third week (control group 1/6)): 6/7
